Data reported in ChEMBL document CHEMBL3046611, “Anti-tubercular agents from Ammannia baccifera (Linn.)” (2013).
≈ marks a conversion by molar mass, not a printed value.

What was measured:
[1] = tested on: Mycobacterium tuberculosis; test: Antitubercular activity against Mycobacterium tuberculosis H37Rv ATCC 27294 assessed as growth inhibition after 24 hr by BACTEC-460 radiometric susceptibility assay; type: functional; conditions: H37Rv ATCC 27294, 24 h
[2] = tested on: Mycobacterium tuberculosis; test: Antimycobacterial activity against Mycobacterium tuberculosis H37Rv ATCC 27294 assessed as growth inhibition by agar dilution method; type: functional

SMILES	MIC [1]	MIC [2]
COc1cc(C(=O)O[C@H]2CCC(=O)c3ccccc32)cc(OC)c1OC [4-O-(3,4,5-TRIMETHOXYBENZOYL)-ALPHA-TETRALONE]	100 µg/mL (≈ 281 µM)	
O=C(O[C@H]1CCC(=O)c2ccccc21)c1ccccc1 [4-O-BENZOYL-ALPHA-TETRALONE]	100 µg/mL (≈ 376 µM)	
COc1cccc(C(=O)O[C@H]2CCC(=O)c3ccccc32)c1 [4-O-META-ANISOYL-ALPHA-TETRALONE]	100 µg/mL (≈ 337 µM)	
CCCCCCCCCCCCCC(=O)O[C@H]1CCC(=O)c2ccccc21 [4-O-MYRICITOYL-ALPHA-TETRALONE]	50 µg/mL (≈ 134 µM)	
CCCCCCCCCCCCCCCC(=O)O[C@H]1CCC(=O)c2ccccc21 [4-O-PALMITOYL-ALPHATETRALONE]	100 µg/mL (≈ 250 µM)	
O=C1CC[C@H](O)c2ccccc21 [(-)-4-HYDROXY-ALPHA-TETRALONE]	50 µg/mL (≈ 308 µM)	4 µg/mL (≈ 24.7 µM)
O=C1CC[C@H](O[C@@H]2O[C@H](CO)[C@@H](O)[C@H](O)[C@H]2O)c2ccccc21 [TETRALONE-4-O-BETA-D-GLUCOPYRANOSIDE]	100 µg/mL (≈ 308 µM)	
